Source: patent US20240285497A1, “METHOD FOR EVALUATING AN ABILITY OF A TEST SAMPLE TO TRIGGER A FOREIGN BODY REACTION IN THE SKIN, A METHOD FOR SCREENING A SUBSTANCE HAVING AN ABILITY TO INHIBIT A FOREIGN BODY REACTION IN THE SKIN, AND AN AGENT FOR INHIBITING A FOREIGN BODY REACTION IN THE SKIN” (priority 2021, published 2024)
Marks after values point to notes of the source that are not given here.

What was measured:
[1] = system: human liver cancer-derived cell line HepG2 cells; conditions: cited from earlier work
[2] = system: artemin mRNA; test: Artemin mRNA expression in HaCaT cells contacted with FICZ, quantitative PCR; type: cell-based, human; conditions: 24 hours; for expression level of artemin mRNA compared to cells without FICZ: no Fraglide-1
Experimental: First, HaCaT cells (CLI; Catalogue No.: 300493) were suspended in a DMEM medium at the density of 1×10^5 cell/mL, and 100 μL of the thus obtained suspension was added to each well of white 96 well plates (Thermo Fisher Scientific, MA, U.S.A.; Catalogue No.: 136102) so that the number of the cells in each well was 10,000 cells/well. In accordance with a conventional method, the cells were incubated at 37° C. for 24 hours in the presence of 5% CO2. Thereafter, the DMEM medium was removed, and 100 μL of a new DMEM medium containing FICZ at a predetermined concentration (i.e., 5 nM, 50 nM, 500 nM, and 5,000 nM) was added, followed by further incubation for 24 hours at 37° C. and 5% CO2. Meanwhile, negative controls were prepared by adding 100 μL of a DMEM medium containing no FICZ instead of the DMEM medium containing FICZ, which were also incubated for 24 hours at 37° C. and 5% CO2.
After the above-described incubation for 24 hours, total RNA was extracted and cDNA was prepared using a PCR kit “SuperPrep II Cell Lysis & RT Kit for qPCR” (Catalogue No.: SCQ-401) manufactured by Toyobo Co., Ltd. (Osaka, Japan) in accordance with a method described in the manual attached to the kit. Briefly, after the above-described incubation for 24 hours, cell culture medium was removed from each well and the cells were washed with PBS (Phosphate-buffered saline). Thereafter, each well was added with 10 μL of a lysis reagent, which was prepared by mixing 58.7 μL of “Lysis solution”, 0.3 μL of “gDNA Remover” and 1 μL of “RNase Inhibitor” attached to the above PCR kit. The cell culture plate was shaken for about 30 seconds, and allowed to stand at room temperature for 5 minutes, to obtain a cell lysate containing total RNA that can be used as a template for reverse transcription reaction. Herein, “Lysis Solution” was a cell lysis agent to lyse cells; “gDNA remover” was a reagent containing DNase I that degrades genome DNA; and “RNase Inhibitor” was a reagent to inhibit degradation of RNA by cellular components such as RNase, etc.
Next, cDNA was synthesized from the extracted RNA by reverse transcription. Firstly, a master mix for reverse transcription reaction was prepared by mixing 8 μL of “5×RT Master Mix” and 24 μL of “Nuclease-free water”, which were attached to the above PCR kit “SuperPrep II Cell Lysis & RT Kit for qPCR” manufactured by Toyobo Co., Ltd. (Osaka, Japan). Preparation of the master mix for reverse transcription reaction was carried out on ice. In a PCR tube, 32 μL of the obtained master mix was dispensed and then 8 μL of the above cell lysate present in each well was added to make a total volume 40 μL, which was used for the following reverse transcription reaction. The reverse transcription reaction was carried out under the conditions of 37° C. for 15 mins, 50° C. for 5 mins, and 98° C. for 5 mins. The thus obtained cDNA solution was added with 80 μL of sterile water and then frozen at −20° C. for storage.
Quantitative PCR was carried out by using THUNDERBIRD Next SYBR qPCR Mix (Toyobo Co., Ltd., Osaka, Japan; Catalogue No. QPX-201) and StepOne Real-Time PCR System (Thermo Fisher Scientific, MA, USA). […] The reaction solution was used for quantitative PCR. Based on Ct (cycle threshold) value obtained by quantitative PCR, an amount of mRNA of each target gene was obtained. […]

[3] = system: xenobiotic responsive element (XRE); test: Screening: inhibition of FICZ-triggered reporter protein expression in XRE-NLuc::HaCaT cells; type: cell-based, human; conditions: FICZ 5,000 nM, 24 hours
Experimental: First, in the same manner as in Experiment 1-2, XRE-NLuc::HaCaT cells were suspended in a DMEM medium at the density of 1×10^5 cell/mL, and 100 μL of the thus obtained suspension was added to each well of white 96-well plates (Thermo Fisher Scientific, MA, U.S.A.; Catalogue No.: 136102) so that a number of the cells in each well was 10,000 cells/well. In accordance with the conventional method, the cells were incubated for 24 hours at 37° C. and 5% CO2. Thereafter, the DMEM medium was removed, and 100 μL of a new DMEM medium containing […] of FICZ, which was confirmed to activate the expression of the reporter protein in Experiment 1-2, and a candidate substance at a predetermined concentration. Meanwhile, reference samples were also prepared by adding 100 μL of a DMEM medium containing 5,000 nM of FICZ but not containing candidate substances. In this experiment, 5-hydroxy-4-phenyl-2(5H)butenolide (hereinafter also referred to as “Fraglide-1” or “FG1”) and, as a positive control, cinnamaldehyde, which is known to have an effect of inhibiting a foreign body reaction in which a xenobiotic responsive element (XRE) is involved, were used as test substances. After incubation for 24 hours at 37° C. and 5% CO2, the expression level of the reporter protein (luminescence intensity) and the viable cell count were measured in accordance with the method described in Experiment 1-2, and the expression of the reporter protein per unit number of viable cells was obtained. The inhibition rate (Inhibition (%)) of the expression of the reporter protein exerted by each candidate substance was calculated in accordance with the following formula.
In the above formula, (Reporter Expression)FICZ indicates the expression of the reporter protein per unit number of viable cells obtained from the reference samples: i.e., the cells incubated in the medium containing 5,000 nM of FICZ but not containing candidate substances. Meanwhile, (Reporter Expression)FICZ+TEST SAMPLE indicates the expression of the reporter protein per unit number of viable cells obtained from the cells incubated in the medium containing 5,000 nM of FICZ and a candidate substance. The results shown in FIG. 6 were the mean obtained from three independent experiments. The error bars represent the standard error (SE).

For 6-formylindolo[3,2-b] carbazole [FICZ], the “Literature Value Maximum Effective concentration Max. Induction” value [1] is listed as 1** μM, the “expression level of artemin mRNA compared to cells without FICZ” value ([2]; HaCaT cells, 500 nM FICZ) is listed as “about 3.0 fold” and the “expression level of artemin mRNA compared to cells without FICZ” value ([2]; HaCaT cells, 5,000 nM FICZ) is listed as about 3.7 fold. For the same compound, the “concentration necessary to observe a significant increase in the expression level of artemin mRNA” value ([2]; HaCaT cells) was “at least 500 nM”, the “change in expression level of artemin mRNA” value ([2]; HaCaT cells, FICZ 50 nM or lower) was “no change was observed” and the “expression level of artemin mRNA, dependence on concentration” value ([2]; HaCaT cells, FICZ 5-5,000 nM) was “increased along with the concentration of FICZ”.

In the case of `O=C1C=C(c2ccccc2)C(O)O1` (stereo not drawn) [Fraglide-1, 5-hydroxy-4-phenyl-2(5H)butenolide], the “Inhibition (%) of expression of the reporter protein triggered by FICZ” value (from here on “Inhibition (%)”) ([3]; 12.5 μM test substance) is reported as 58%, the “Inhibition (%)” value ([3]; 25 μM test substance) is reported as 68% and the “Inhibition (%)” value ([3]; 50 μM test substance) is reported as 83%.
